For 4 molecules, Activity results are on record in ChEMBL document CHEMBL1250451, “Mechanistic insights into a Ca2+-dependent family of alpha-mannosidases in a human gut symbiont” (Nat Chem Biol, 2010).

Holding throughout (assay type): protein assay
Test [1] concerns the target T1, Alpha-1,2-mannosidase (BT_3527) (Bacteroides thetaiotaomicron) (UniProt Q8A1Y1).
T1 sequence (whole entry): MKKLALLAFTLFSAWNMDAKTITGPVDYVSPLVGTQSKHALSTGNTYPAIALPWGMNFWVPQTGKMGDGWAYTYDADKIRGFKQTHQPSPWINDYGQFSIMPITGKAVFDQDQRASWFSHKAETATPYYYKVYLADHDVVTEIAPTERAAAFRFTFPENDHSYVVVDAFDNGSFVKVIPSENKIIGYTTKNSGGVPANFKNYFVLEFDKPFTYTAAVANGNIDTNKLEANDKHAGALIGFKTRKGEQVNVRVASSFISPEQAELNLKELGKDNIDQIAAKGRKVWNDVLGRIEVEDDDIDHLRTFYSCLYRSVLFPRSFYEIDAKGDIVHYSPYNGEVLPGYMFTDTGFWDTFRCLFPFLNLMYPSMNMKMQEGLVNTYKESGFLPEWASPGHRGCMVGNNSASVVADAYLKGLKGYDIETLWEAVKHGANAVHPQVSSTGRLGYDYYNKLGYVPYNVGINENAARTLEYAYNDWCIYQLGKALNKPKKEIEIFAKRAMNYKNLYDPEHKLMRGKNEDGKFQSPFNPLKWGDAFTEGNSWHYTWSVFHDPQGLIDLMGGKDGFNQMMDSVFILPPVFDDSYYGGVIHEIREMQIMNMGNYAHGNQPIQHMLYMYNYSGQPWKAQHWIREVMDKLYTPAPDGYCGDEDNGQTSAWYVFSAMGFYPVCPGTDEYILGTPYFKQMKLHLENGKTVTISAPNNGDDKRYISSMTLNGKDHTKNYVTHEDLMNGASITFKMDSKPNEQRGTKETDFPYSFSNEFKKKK
Briefly: Activity of Bacteroides thetaiotaomicron GH92 alpha-mannosidase GH92 alpha-mannosidase 3527 assessed as mannose release at 1 mM after 16 hrs by HPLC relative to untreated control after 16 hrs by HPLC.

The target in test [2] is T2, Glycoside hydrolase family 92 (BT_3962) (Bacteroides thetaiotaomicron) (UniProt Q8A0Q9).
T2 sequence (whole entry): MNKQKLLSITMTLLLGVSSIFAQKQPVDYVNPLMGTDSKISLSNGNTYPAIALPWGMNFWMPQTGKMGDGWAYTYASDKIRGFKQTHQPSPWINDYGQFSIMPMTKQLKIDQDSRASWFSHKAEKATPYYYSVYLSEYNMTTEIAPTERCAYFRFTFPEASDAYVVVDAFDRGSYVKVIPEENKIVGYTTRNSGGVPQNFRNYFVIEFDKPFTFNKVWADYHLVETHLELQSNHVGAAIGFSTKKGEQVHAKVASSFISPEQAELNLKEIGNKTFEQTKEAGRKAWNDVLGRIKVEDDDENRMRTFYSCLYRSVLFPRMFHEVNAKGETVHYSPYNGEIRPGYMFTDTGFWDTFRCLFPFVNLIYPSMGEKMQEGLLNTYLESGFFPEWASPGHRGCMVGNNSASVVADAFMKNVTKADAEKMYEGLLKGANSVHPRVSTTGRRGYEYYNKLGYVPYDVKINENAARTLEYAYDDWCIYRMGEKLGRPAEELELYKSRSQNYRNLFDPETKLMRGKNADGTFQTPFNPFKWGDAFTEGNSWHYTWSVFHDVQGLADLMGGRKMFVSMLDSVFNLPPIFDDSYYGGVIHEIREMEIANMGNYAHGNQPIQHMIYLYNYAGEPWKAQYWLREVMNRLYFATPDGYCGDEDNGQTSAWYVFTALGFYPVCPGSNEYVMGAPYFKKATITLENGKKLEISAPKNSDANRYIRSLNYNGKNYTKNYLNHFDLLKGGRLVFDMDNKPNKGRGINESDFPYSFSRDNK
The test can be described thus: Activity of Bacteroides thetaiotaomicron GH92 alpha-mannosidase GH92 alpha-mannosidase 3962 assessed as mannose release at 1 mM after 16 hrs by HPLC relative to untreated control after 16 hrs by HPLC.

The target of test [3] is T3, Alpha-1,2-mannosidase, putative (BT_4073) (Bacteroides thetaiotaomicron) (UniProt Q8A0E8).
T3 sequence (whole entry): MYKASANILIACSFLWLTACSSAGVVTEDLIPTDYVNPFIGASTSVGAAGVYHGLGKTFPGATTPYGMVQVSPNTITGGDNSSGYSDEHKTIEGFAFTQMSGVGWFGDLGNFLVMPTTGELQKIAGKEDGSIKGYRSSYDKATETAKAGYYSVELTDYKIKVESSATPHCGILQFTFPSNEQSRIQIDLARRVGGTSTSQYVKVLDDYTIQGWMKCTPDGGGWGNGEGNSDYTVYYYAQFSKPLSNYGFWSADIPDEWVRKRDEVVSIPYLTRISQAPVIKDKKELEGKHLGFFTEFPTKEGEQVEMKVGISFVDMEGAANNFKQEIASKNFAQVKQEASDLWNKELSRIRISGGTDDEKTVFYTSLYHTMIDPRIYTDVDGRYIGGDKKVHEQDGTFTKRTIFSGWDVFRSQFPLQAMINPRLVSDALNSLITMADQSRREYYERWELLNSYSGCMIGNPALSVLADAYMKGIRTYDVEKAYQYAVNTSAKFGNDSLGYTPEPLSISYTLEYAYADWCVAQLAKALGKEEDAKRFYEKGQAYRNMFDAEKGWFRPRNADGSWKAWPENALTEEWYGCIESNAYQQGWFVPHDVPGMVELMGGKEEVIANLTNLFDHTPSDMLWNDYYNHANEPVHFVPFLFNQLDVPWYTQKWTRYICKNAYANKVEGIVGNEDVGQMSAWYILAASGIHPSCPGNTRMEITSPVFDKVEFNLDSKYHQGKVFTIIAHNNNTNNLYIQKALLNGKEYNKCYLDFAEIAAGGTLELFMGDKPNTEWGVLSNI
The test can be described thus: Activity of Bacteroides thetaiotaomicron GH92 alpha-mannosidase GH92 alpha-mannosidase 4073 assessed as mannose release at 1 mM after 16 hrs by HPLC relative to untreated control after 16 hrs by HPLC.

The structures appear in SMILES notation. Calls of active or inactive are those of the source. No cut-off for these calls is given here.

On to `OC[C@H]1O[C@H](O[C@H]2[C@H](O)[C@H](O)[C@@H](O)O[C@@H]2CO)[C@@H](O)[C@@H](O)[C@@H]1O`, for which, in test [1], the outcome was inactive. For the same molecule, the Activity was determined as 0.042% in test [2] and 100% in test [3].
The corresponding values for `OC[C@H]1O[C@H](O[C@H]2[C@@H](O)[C@H](O)[C@@H](CO)O[C@@H]2O)[C@@H](O)[C@@H](O)[C@@H]1O` are “inactive”, 100% and “inactive”.
The corresponding values for `OC[C@H]1O[C@H](OC[C@H]2O[C@H](O)[C@@H](O)[C@@H](O)[C@@H]2O)[C@@H](O)[C@@H](O)[C@@H]1O` are “inactive”, 0.0031% and “inactive”.
With `OC[C@H]1O[C@H](O[C@@H]2[C@H](O)[C@@H](O)O[C@H](CO)[C@H]2O)[C@@H](O)[C@@H](O)[C@@H]1O`, the outcome in test [1], in test [2] and in test [3] was inactive.
